Reference: ChEMBL document CHEMBL4507285, “Data for DCP probe MRL-SYKi” (2021)
Activity calls are given as the source filed them. The calls are words filed in the database; no cut-off is given here.

Assays:
[1] = biological target: Tyrosine-protein kinase JAK2 (Homo sapiens, UniProt O60674); settings: Compound concentration 100.0 nM
[2] = biological target: Phosphorylase b kinase gamma catalytic chain, skeletal muscle/heart isoform (Homo sapiens) (UniProt Q16816); settings: Compound concentration 100.0 nM
[3] = biological target: Serine/threonine-protein kinase PLK4 (Homo sapiens) (UniProt O00444); settings: Compound concentration 100.0 nM
[4] = biological target: Mast/stem cell growth factor receptor Kit (Homo sapiens) (UniProt P10721); settings: Compound concentration 100.0 nM
[5] = biological target: 5-hydroxytryptamine receptor 5A (Homo sapiens) (UniProt P47898); settings: Compound concentration 10.0 uM
[6] = system: Tyrosine-protein kinase ABL1 (Homo sapiens), P00519 [T315I]; settings: Compound concentration 100.0 nM
[7] = biological target: Activin receptor type-1B (Homo sapiens) (UniProt P36896); settings: Compound concentration 100.0 nM
[8] = biological target: Serine/threonine-protein kinase 3 (Homo sapiens) (UniProt Q13188); settings: Compound concentration 100.0 nM
[9] = biological target: Tyrosine-protein kinase FRK (Homo sapiens) (UniProt P42685); settings: Compound concentration 100.0 nM
[10] = biological target: Muscarinic acetylcholine receptor M2 (Homo sapiens) (UniProt P08172); settings: Compound concentration 10.0 uM
[11] = biological target: Casein kinase I isoform gamma-1 (Homo sapiens) (UniProt Q9HCP0); settings: Compound concentration 100.0 nM
[12] = biological target: Receptor-interacting serine/threonine-protein kinase 2 (Homo sapiens) (UniProt O43353); settings: Compound concentration 100.0 nM
[13] = biological target: Serine/threonine-protein kinase 17A (Homo sapiens) (UniProt Q9UEE5); settings: Compound concentration 100.0 nM
[14] = biological target: Vascular endothelial growth factor receptor 3 (Homo sapiens) (UniProt P35916); settings: Compound concentration 100.0 nM
[15] = biological target: Serine/threonine-protein kinase 32B (Homo sapiens) (UniProt Q9NY57); settings: Compound concentration 100.0 nM
[16] = biological target: Dual specificity protein kinase CLK2 (Homo sapiens) (UniProt P49760); settings: Compound concentration 100.0 nM
[17] = biological target: TGF-beta receptor type-1 (Homo sapiens) (UniProt P36897); settings: Compound concentration 100.0 nM
[18] = biological target: 5'-AMP-activated protein kinase catalytic subunit alpha-2 (Homo sapiens) (UniProt P54646); settings: Compound concentration 100.0 nM
[19] = biological target: Phosphatidylinositol 4-kinase beta (Homo sapiens) (UniProt Q9UBF8); settings: Compound concentration 100.0 nM
[20] = biological target: Tyrosine-protein kinase Fgr (Homo sapiens, UniProt P09769); settings: Compound concentration 100.0 nM
[21] = biological target: Mitogen-activated protein kinase 1 (Homo sapiens) (UniProt P28482); settings: Compound concentration 100.0 nM
[22] = system: Epidermal growth factor receptor (Homo sapiens), P00533 [UNDEFINED MUTATION]; settings: Compound concentration 100.0 nM
[23] = biological target: Serine/threonine-protein kinase ULK3 (Homo sapiens) (UniProt Q6PHR2); settings: Compound concentration 100.0 nM
[24] = biological target: Serine/threonine-protein kinase LATS2 (Homo sapiens) (UniProt Q9NRM7); settings: Compound concentration 100.0 nM
[25] = system: Tyrosine-protein kinase ABL1 (Homo sapiens), P00519 [Q252H]; settings: Compound concentration 100.0 nM
[26] = biological target: Calcium/calmodulin-dependent protein kinase type II subunit beta (Homo sapiens) (UniProt Q13554); settings: Compound concentration 100.0 nM
[27] = biological target: Mitogen-activated protein kinase kinase kinase 12 (Homo sapiens) (UniProt Q12852); settings: Compound concentration 100.0 nM
[28] = biological target: Dual specificity mitogen-activated protein kinase kinase 4 (Homo sapiens) (UniProt P45985); settings: Compound concentration 100.0 nM
[29] = system: Tyrosine-protein kinase ABL1 (Homo sapiens), P00519 [M351T]; settings: Compound concentration 100.0 nM
[30] = system: Phosphatidylinositol 4,5-bisphosphate 3-kinase catalytic subunit alpha isoform (Homo sapiens), P42336 [I800L]; settings: Compound concentration 100.0 nM
[31] = system: Mast cell; assay: Human Mast Cell degranulation; type: cell-based
[32] = biological target: Dual specificity mitogen-activated protein kinase kinase 1 (Homo sapiens) (UniProt Q02750); settings: Compound concentration 100.0 nM
[33] = biological target: Alpha-2A adrenergic receptor (Homo sapiens) (UniProt P08913); settings: Compound concentration 10.0 uM
[34] = biological target: Calcium-dependent protein kinase 1 (Plasmodium falciparum) (UniProt P62344); settings: Compound concentration 100.0 nM
[35] = biological target: Dual specificity protein kinase TTK (Homo sapiens) (UniProt P33981); settings: Compound concentration 100.0 nM
[36] = biological target: Alpha-1B adrenergic receptor (Homo sapiens) (UniProt P35368); settings: Compound concentration 10.0 uM
[37] = biological target: Tyrosine-protein kinase Yes (Homo sapiens) (UniProt P07947); settings: Compound concentration 100.0 nM
[38] = biological target: cAMP-dependent protein kinase catalytic subunit alpha (Homo sapiens) (UniProt P17612); settings: Compound concentration 100.0 nM
[39] = system: Tyrosine-protein kinase ABL1 (Homo sapiens), P00519 [F317L]; settings: Compound concentration 100.0 nM
[40] = biological target: Misshapen-like kinase 1 (Homo sapiens) (UniProt Q8N4C8); settings: Compound concentration 100.0 nM
[41] = biological target: Serine/threonine-protein kinase TAO3 (Homo sapiens) (UniProt Q9H2K8); settings: Compound concentration 100.0 nM
[42] = biological target: Serine/threonine-protein kinase TBK1 (Homo sapiens) (UniProt Q9UHD2); settings: Compound concentration 100.0 nM
[43] = biological target: Serine/threonine-protein kinase 16 (Homo sapiens) (UniProt O75716); settings: Compound concentration 100.0 nM
[44] = system: Phosphatidylinositol 4,5-bisphosphate 3-kinase catalytic subunit alpha isoform (Homo sapiens), P42336 [Q546K]; settings: Compound concentration 100.0 nM
[45] = system: Phosphatidylinositol 4,5-bisphosphate 3-kinase catalytic subunit alpha isoform (Homo sapiens), P42336 [M1043I]; settings: Compound concentration 100.0 nM

Chain of Epidermal growth factor receptor (Homo sapiens), P00533 [UNDEFINED MUTATION] (P00533 whole entry, looked up, change not shown): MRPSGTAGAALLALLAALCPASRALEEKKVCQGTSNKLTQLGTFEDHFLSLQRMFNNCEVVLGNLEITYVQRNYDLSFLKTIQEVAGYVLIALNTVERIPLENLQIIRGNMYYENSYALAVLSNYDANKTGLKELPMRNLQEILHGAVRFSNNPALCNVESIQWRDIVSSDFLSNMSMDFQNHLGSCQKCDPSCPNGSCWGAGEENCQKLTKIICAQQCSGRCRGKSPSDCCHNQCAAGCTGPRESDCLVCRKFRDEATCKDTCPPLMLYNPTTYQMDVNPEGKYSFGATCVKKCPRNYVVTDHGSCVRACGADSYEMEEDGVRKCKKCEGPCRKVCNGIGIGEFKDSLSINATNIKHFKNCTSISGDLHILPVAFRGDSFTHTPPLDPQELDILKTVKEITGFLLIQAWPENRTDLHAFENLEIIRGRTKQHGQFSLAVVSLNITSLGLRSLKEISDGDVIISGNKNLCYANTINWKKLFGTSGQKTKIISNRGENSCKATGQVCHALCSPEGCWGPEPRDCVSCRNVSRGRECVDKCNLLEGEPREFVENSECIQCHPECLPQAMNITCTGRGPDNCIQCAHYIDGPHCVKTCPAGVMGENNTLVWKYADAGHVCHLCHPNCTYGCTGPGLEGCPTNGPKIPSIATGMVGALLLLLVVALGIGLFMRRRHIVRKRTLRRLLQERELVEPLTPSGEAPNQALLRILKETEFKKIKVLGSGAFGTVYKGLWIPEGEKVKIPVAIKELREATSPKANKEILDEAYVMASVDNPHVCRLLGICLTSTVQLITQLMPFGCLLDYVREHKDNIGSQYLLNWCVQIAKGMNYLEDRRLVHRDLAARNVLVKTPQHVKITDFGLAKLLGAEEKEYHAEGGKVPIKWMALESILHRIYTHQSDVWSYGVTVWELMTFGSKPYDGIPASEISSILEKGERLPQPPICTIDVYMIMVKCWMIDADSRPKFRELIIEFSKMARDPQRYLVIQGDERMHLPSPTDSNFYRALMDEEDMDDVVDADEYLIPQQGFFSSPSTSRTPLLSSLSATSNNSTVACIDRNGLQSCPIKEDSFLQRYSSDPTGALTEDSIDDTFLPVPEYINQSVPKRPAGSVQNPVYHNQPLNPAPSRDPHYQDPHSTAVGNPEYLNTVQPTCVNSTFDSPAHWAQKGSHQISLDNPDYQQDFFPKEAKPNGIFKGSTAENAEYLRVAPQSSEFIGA
Chain of Serine/threonine-protein kinase 3 (Homo sapiens) (Q13188 whole entry): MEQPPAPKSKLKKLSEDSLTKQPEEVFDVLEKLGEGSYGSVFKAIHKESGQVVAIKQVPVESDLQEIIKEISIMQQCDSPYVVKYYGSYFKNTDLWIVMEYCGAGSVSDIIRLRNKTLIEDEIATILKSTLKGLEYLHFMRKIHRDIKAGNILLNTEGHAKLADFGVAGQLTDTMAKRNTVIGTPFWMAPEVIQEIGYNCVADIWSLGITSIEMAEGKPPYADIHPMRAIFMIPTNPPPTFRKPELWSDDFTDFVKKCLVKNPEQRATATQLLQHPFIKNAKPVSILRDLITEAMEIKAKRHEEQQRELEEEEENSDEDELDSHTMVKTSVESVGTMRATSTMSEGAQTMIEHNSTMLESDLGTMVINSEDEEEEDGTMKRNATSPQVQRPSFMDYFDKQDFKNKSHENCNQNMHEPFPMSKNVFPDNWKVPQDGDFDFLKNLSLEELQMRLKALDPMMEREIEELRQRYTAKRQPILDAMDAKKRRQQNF
Chain of Vascular endothelial growth factor receptor 3 (Homo sapiens) (P35916 whole entry): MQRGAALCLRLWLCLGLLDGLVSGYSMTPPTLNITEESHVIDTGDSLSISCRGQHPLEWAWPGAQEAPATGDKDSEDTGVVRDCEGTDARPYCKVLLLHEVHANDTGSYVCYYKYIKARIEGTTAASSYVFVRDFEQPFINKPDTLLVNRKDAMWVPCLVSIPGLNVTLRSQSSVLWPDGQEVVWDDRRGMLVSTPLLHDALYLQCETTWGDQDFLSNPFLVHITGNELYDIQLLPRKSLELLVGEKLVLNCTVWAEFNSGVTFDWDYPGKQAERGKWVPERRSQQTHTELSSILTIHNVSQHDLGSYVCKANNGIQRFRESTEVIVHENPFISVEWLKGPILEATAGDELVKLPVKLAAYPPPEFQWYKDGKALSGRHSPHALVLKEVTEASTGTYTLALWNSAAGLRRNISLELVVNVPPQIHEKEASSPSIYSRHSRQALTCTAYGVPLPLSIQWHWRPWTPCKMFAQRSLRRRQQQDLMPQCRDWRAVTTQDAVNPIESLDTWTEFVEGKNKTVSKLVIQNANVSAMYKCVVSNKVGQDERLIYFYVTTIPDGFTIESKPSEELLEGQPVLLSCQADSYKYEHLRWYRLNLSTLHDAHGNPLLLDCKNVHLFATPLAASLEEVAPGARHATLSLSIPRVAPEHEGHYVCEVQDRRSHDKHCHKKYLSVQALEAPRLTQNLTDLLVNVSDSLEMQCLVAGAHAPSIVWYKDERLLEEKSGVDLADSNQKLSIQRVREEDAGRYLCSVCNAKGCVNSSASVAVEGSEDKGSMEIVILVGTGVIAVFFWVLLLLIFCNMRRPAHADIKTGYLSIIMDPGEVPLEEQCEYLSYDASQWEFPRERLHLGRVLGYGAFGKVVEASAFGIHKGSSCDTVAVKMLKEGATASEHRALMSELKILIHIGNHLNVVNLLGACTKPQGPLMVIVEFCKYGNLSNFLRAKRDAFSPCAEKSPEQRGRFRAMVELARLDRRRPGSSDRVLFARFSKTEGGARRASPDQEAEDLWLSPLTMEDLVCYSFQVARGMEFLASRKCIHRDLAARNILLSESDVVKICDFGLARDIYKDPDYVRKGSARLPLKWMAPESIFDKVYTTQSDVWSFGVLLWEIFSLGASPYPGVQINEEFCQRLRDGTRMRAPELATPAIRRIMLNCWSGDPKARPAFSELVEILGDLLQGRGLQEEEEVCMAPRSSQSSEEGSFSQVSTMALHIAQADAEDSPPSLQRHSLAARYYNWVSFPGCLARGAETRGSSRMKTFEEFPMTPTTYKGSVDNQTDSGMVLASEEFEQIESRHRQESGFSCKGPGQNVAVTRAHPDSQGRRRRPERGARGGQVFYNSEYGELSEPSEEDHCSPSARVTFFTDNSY
Chain of 5'-AMP-activated protein kinase catalytic subunit alpha-2 (Homo sapiens) (P54646 whole entry, looked up): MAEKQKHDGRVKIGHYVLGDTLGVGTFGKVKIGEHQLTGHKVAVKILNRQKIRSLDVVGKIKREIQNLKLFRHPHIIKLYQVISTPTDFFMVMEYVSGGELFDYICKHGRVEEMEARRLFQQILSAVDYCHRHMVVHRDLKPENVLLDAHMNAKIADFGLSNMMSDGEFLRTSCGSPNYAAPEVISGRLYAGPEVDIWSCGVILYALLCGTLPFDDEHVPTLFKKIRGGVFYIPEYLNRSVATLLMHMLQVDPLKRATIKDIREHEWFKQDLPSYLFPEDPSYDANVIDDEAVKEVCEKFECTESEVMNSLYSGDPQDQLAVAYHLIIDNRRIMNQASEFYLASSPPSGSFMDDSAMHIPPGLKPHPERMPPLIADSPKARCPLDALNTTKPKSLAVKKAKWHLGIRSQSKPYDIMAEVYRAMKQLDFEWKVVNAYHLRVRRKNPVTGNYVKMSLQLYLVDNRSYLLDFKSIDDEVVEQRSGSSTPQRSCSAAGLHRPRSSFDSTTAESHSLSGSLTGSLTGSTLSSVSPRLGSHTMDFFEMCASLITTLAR
Chain of Receptor-interacting serine/threonine-protein kinase 2 (Homo sapiens) (O43353 whole entry): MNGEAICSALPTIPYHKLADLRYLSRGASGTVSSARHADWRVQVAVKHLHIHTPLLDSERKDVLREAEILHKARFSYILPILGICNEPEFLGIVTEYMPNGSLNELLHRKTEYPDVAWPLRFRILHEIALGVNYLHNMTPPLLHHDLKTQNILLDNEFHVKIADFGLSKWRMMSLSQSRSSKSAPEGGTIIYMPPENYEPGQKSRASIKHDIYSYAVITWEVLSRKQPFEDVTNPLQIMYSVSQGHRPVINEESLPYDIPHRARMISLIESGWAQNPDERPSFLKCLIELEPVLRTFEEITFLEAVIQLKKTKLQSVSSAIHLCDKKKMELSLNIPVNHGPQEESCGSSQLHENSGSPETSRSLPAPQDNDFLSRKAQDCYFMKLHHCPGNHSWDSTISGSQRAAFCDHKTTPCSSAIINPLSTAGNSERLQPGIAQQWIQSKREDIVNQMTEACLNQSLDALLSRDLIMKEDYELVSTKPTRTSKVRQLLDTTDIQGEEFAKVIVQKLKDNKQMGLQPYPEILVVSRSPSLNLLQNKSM
Chain of Serine/threonine-protein kinase 32B (Homo sapiens) (Q9NY57 whole entry): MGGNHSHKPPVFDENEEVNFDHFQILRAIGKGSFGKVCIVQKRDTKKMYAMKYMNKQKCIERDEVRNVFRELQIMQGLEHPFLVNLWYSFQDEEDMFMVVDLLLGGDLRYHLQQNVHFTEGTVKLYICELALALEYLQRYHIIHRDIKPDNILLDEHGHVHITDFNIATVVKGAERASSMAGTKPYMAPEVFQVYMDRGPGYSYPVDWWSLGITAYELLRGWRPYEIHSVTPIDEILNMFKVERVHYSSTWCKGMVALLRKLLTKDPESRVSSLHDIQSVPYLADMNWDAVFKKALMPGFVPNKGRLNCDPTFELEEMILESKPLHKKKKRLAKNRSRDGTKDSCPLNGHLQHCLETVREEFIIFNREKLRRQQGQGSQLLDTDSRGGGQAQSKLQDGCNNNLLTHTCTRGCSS
Chain of Serine/threonine-protein kinase 17A (Homo sapiens) (Q9UEE5 whole entry): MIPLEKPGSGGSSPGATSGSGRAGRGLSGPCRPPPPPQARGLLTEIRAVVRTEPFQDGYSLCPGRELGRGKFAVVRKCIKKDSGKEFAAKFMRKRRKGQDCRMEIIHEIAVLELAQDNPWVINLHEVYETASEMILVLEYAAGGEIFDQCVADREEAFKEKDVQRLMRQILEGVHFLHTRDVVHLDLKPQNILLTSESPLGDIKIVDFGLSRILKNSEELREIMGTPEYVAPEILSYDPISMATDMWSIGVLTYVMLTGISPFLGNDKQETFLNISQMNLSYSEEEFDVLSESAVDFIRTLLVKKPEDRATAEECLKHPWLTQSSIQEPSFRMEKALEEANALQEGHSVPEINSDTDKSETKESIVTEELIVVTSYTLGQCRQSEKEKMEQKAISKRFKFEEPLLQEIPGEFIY

`Cc1ccc(-c2cnc([C@@]3(O)CC[C@H](C(=O)O)C(C)(C)C3)s2)cc1Nc1cccc(C(F)(F)F)n1` [MRL-SYKi-NC] gave a residual activity [1] of 96.6%, a residual activity [2] of 100% and a residual activity [3] of 56.5%. The residual activity [4] was 100%, the inhibition [5] was -4.56% and the residual activity [6] was 88%. The residual activity [7] was 100%, the residual activity [8] was 98.1% and the residual activity [9] was 100%. For the same compound, the inhibition [10] was 23%, the residual activity [11] was 91.8% and the residual activity [12] was 96.8%. The residual activity [13] was 96.7%, the residual activity [14] was 100% and the residual activity [15] was 63.9%. The residual activity [16] was 100%, the residual activity [17] was 83% and the residual activity [18] was 94.7%. The residual activity [19] was 81.2%, the residual activity [20] was 100% and the residual activity [21] was 100%. It also gave a residual activity [22] of 100%, a residual activity [23] of 68.1% and a residual activity [24] of 90.6%. For the same compound, the residual activity [25] was 75.4%, the residual activity [26] was 95.3% and the residual activity [27] was 99.3%. The residual activity [28] was 81.2%, the residual activity [29] was 87% and the residual activity [30] was 76.7%. For the same compound, the IC50 [31] was > 10 µM (not active), the residual activity [32] was 95% and the inhibition [33] was 34.5%. It also gave a residual activity [34] of 90.1%, a residual activity [35] of 78.8% and an inhibition [36] of 7.9%. For the same compound, the residual activity [37] was 100%, the residual activity [38] was 100% and the residual activity [39] was 99.1%. It also gave a residual activity [40] of 100%, a residual activity [41] of 98.6% and a residual activity [42] of 86.4%. The residual activity [43] was 78%, the residual activity [44] was 100% and the residual activity [45] was 90.4%.
`Cc1cc(Nc2nccc(C)n2)cc(-c2cnc([C@@]3(O)CC[C@H](C(=O)O)C(C)(C)C3)s2)c1` [MRL-SYKi] showed a residual activity [1] of 45.5%, a residual activity [2] of 100% and a residual activity [3] of 100%. It also gave a residual activity [4] of 93.2%, an inhibition [5] of 10% and a residual activity [6] of 100%. It also gave a residual activity [7] of 92.7%, a residual activity [8] of 100% and a residual activity [9] of 100%. The inhibition [10] was 8.6%, the residual activity [11] was 100% and the residual activity [12] was 83.8%. It also gave a residual activity [13] of 99.6%, a residual activity [14] of 91.3% and a residual activity [15] of 100%. The residual activity [16] was 98%, the residual activity [17] was 68.4% and the residual activity [18] was 100%. The residual activity [19] was 88.6%, the residual activity [20] was 100% and the residual activity [21] was 100%. The residual activity [22] was 100%, the residual activity [23] was 56.1% and the residual activity [24] was 100%. The residual activity [25] was 86.9%, the residual activity [26] was 100% and the residual activity [27] was 66.9%. The residual activity [28] was 100%, the residual activity [29] was 78.3% and the residual activity [30] was 95.1%. For the same compound, the IC50 [31] was 0.038 µM (active), the residual activity [32] was 100% and the inhibition [33] was -2.14%. It also gave a residual activity [34] of 100%, a residual activity [35] of 74.8% and an inhibition [36] of 3.23%. For the same compound, the residual activity [37] was 100%, the residual activity [38] was 100% and the residual activity [39] was 100%. For the same compound, the residual activity [40] was 80.7%, the residual activity [41] was 100% and the residual activity [42] was 55.5%. The residual activity [43] was 100%, the residual activity [44] was 81.6% and the residual activity [45] was 61.8%.
